The target in one assay is T1, h-GABAA α1β2γ1 (Homo sapiens, UniProt P14867+Q8N1C3).
T1 construct: expressed in transfected cells; host or cells: HEK293F cells (ThermoFisher R79007), membranes
T1 sequence (P14867 28-456): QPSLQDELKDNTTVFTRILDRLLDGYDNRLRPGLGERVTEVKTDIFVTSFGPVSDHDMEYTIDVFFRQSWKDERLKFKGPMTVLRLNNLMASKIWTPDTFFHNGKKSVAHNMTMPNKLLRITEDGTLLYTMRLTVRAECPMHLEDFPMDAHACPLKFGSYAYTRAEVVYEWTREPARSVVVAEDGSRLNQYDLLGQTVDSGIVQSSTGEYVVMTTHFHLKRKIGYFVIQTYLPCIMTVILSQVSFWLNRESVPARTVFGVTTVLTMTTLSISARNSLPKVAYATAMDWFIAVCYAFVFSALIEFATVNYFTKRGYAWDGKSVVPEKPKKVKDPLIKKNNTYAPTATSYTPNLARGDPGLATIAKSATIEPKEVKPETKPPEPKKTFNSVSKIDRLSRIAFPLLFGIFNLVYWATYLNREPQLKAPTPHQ
T1 sequence (P47870 25-512 partner limits assumed): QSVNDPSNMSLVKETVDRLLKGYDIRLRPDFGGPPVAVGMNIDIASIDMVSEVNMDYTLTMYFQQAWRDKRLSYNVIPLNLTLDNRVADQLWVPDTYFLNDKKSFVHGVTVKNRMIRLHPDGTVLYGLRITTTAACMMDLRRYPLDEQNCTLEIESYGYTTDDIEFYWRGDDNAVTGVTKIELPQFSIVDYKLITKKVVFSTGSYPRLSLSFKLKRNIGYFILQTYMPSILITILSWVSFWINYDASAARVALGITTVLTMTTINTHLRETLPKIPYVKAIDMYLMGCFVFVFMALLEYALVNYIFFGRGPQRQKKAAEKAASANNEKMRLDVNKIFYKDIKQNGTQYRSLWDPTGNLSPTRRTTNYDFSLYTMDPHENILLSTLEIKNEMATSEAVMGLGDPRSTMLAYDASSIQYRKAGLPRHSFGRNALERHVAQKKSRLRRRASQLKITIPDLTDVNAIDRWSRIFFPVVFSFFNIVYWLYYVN
T1 sequence (Q8N1C3 36-465): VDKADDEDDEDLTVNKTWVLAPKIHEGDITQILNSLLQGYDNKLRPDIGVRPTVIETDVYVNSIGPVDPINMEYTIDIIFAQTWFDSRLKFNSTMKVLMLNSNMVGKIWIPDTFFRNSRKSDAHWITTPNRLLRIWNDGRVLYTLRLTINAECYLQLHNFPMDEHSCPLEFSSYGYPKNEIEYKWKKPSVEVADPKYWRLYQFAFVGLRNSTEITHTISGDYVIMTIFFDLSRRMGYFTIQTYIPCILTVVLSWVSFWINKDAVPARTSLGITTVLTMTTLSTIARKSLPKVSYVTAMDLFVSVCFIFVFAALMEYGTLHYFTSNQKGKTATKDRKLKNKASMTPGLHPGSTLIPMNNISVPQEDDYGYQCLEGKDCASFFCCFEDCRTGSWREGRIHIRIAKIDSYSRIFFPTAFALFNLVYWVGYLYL
The assay can be described thus: Radioligand binding assay, [3H]RO7239181 competition, HEK293F membranes. The method, then:
The affinity of compounds at GABAA γ1 subunit-containing receptors was measured by competition for [^3H]RO7239181 (67.3 Ci/mmol; Roche) binding to membranes from HEK293F cells (ThermoFisher R79007) expressing human (transiently transfected) receptors of composition […], α2β2γ1, α1β2γ1.
Harvested pellets from HEK293F cells expressing the different GABAA receptor subtypes were resuspended in Mannitol Buffer pH 7.2-7.4 (Mannitol 0.29M, Triethylamine 10 mM, Acetic acid 10 mM, EDTA 1 mM plus protease inhibitors (20 tablets Complete, Roche Diagnostics Cat. No. 05 056 489 001 per liter)), washed two times and then resuspended at 1:10 to 1:15 dilution in the same buffer. Cell disruption was performed by stirring the suspension in a Parr vessel #4637 at 435 psi for 15 minutes, and then the suspensions were centrifuged at 1000×g for 15 minutes at 4° C. (Beckman Avanti J-HC; rotor JS-4.2). The supernatant (S1) was transferred in a 21 Schott flask and the pellet (P1) was resuspended with Mannitol Buffer up to 175 ml. The resuspended pellet was transferred into a 250 ml Corning centrifugal beaker and centrifuged at 1500×g for 10 minutes at 4° C. (Beckman Avanti J-HC; rotor JS-4.2). The supernatant (S1) was then transferred in the 21 Schott flask and the pellet was discarded. The supernatants (S1) were centrifuged in 500 ml Beckman polypropylene centrifugal beaker at 15′000×g for 30 minutes at 4° C. (Beckman Avanti J-20 XP; rotor JLA-10.500). The pellet (P2) was resuspended with Mannitol Buffer 1:1 and frozen at −80° C. The supernatant (S2) was centrifuged in 100 ml Beckman polypropylene centrifugal tubes at 48000×g for 50 minutes at 4° C. (Beckman Avanti J-20 XP; rotor JA-18). The supernatant (S3) was discarded and the pellet (P3) was resuspended with 1:1 Mannitol Buffer. The P2 and P3 protein concentration was determined with the BIORAD Standard assay method with bovine serum albumin as standard and measured on the NANO-Drop 1000. The membrane suspension was aliquots (500 μl per tube) and stored at −80° C. until required. Membrane homogenates were resuspended and polytronised (Polytron PT1200E Kinematica AG) in Potassium Phosphate 10 mM, KCl 100 mM binding buffer at pH 7.4 to a final assay concentration determined with a previous experiment.
Assays were incubated to equilibrium for 1 hour at 4° C. and then, membranes were filtered onto unifilter (96-well white microplate with bonded GF/C filters preincubated 20-50 minutes in 0.3% Polyethylenimine) with a Filtermate 196 harvester (Packard BioScience) and washed 4 times with cold Potassium Phosphate 10 mM pH 7.4, KCl 100 mM binding buffer. After drying, filter-retained radioactivity was detected by liquid scintillation counting. Ki values were calculated using Excel-Fit (Microsoft) and are the means of two determinations.

Another assay has as its target T2, h-GABAA α1β3γ2 (Homo sapiens, UniProt P14867+P18507).
T2 construct: expressed in transfected cells; host or cells: HEK293F cells, membranes
Put plainly: Radioligand binding assay, [3H]Flumazenil competition, HEK293F membranes. To be noted: for γ2/γ1 Selectivity Ratio: Ki α1β3γ2 (nM)/Ki α2β2γ1 (nM); for LogSel: Log[Ki α1β3γ2 (nM)/Ki α2β2γ1 (nM)]. On the procedure:
The affinity of compounds at GABAA γ2 subunit-containing receptors was measured by competition for [^3H]Flumazenil (81.1 Ci/mmol; Roche) binding to HEK293F cells expressing human (transiently transfected) receptors of composition α1β3γ2.
Harvested pellets from HEK293F cells expressing the different GABAA γ2 receptor subtypes were resuspended in Mannitol Buffer pH 7.2-7.4 and processed as described above for the cells expressing the GABAA γ1 subunit-containing receptors.
Assays were incubated to equilibrium for 1 hour at 4° C. and harvested onto GF/C uni-filters (Packard) by filtration using a Packard harvester and washing with ice-cold wash buffer (50 mM Tris; pH 7.5). After drying, filter-retained radioactivity was detected by liquid scintillation counting. Ki values were calculated using Excel-Fit (Microsoft) and are the means of two determinations.

The term Ki denotes the equilibrium dissociation constant of an inhibitor or competing ligand from its target. A lower Ki goes with a stronger hold on the target. Consider `Clc1cccnc1C1=NCc2nnc(-c3ccncn3)n2-c2ccc(Br)c(Cl)c21` [Example 44, 8-bromo-7-chloro-6-(3-chloro-2-pyridyl)-1-pyrimidin-4-yl-4H-[1,2,4]triazolo[4,3-a][1,4]benzodiazepine], for which the Ki at h-GABAA α1β2γ1 came out at 11.5 nM. In addition, affinity at h-GABAA α1β3γ2 was put at a Ki of 276 nM. Further, on h-GABAA α1β3γ2 (Table 1), the “γ2/γ1 Selectivity Ratio” value is on record as 28.6 and the LogSel worked out at 1.46.

`Cc1nnc2n1-c1ccc(C(F)(F)F)c(Cl)c1C(c1ncccc1F)=NC2` [Example 78, 7-chloro-6-(3-fluoro-2-pyridyl)-1-methyl-8-(trifluoromethyl)-4H-[1,2,4]triazolo[4,3-a][1,4]benzodiazepine] returned a Ki on h-GABAA α1β2γ1 of 67.7 nM. At h-GABAA α1β3γ2, this compound showed a Ki of 4440 nM. Also, on h-GABAA α1β3γ2 (Table 1), the “γ2/γ1 Selectivity Ratio” value worked out at 87.4 and the LogSel is on record as 1.94.

Consider `Fc1ccccc1C1=NCc2nnc(-c3ccncn3)n2-c2ccc(Cl)c(Cl)c21` [Example 18, 7,8-dichloro-6-(2-fluorophenyl)-1-pyrimidin-4-yl-4H-[1,2,4]triazolo[4,3-a][1,4]benzodiazepine], for which, at h-GABAA α1β2γ1, the affinity corresponds to a Ki of 54.1 nM. On h-GABAA α1β3γ2, this compound returned a Ki of 865 nM. Also, at h-GABAA α1β3γ2 (Table 1), the “γ2/γ1 Selectivity Ratio” value is reported as 40.1 and the LogSel is on record as 1.60.

In the case of `O=c1[nH]nc2n1-c1ccc(Cl)c(Cl)c1C(c1c(F)cccc1F)=NC2` [Example 9, 7,8-dichloro-6-(2,6-difluorophenyl)-2,4-dihydro-[1,2,4]triazolo[4,3-a][1,4]benzodiazepin-1-one], the Ki at h-GABAA α1β2γ1 worked out at 7.3 nM. Also, on h-GABAA α1β3γ2, the Ki was 396 nM. Further, at h-GABAA α1β3γ2 (Table 1), the “γ2/γ1 Selectivity Ratio” value is 49.7 and the LogSel came to 1.70.

Consider `Cc1nnc2n1-c1ccc(C(C)(F)F)c(Cl)c1C(c1c(F)cccc1F)=NC2` [Example 22, 7-chloro-8-(1,1-difluoroethyl)-6-(2,6-difluorophenyl)-1-methyl-4H-[1,2,4]triazolo[4,3-a][1,4]benzodiazepine], for which the inhibitory constant (Ki) on h-GABAA α1β2γ1 is 68.7 nM. This compound also returned a Ki at h-GABAA α1β3γ2 of 2790 nM. On h-GABAA α1β3γ2 (Table 1), the “γ2/γ1 Selectivity Ratio” value is 74.6 and the LogSel was found to be 1.87.

In the case of `Fc1cccnc1C1=NCc2nnc(C3CC3)n2-c2ccc(Br)c(Cl)c21` [Example 77, 8-bromo-7-chloro-1-cyclopropyl-6-(3-fluoro-2-pyridyl)-4H-[1,2,4]triazolo[4,3-a][1,4]benzodiazepine], the inhibitory constant (Ki) at h-GABAA α1β2γ1 worked out at 41.5 nM; on h-GABAA α1β3γ2 it was 716 nM. For the same compound, on h-GABAA α1β3γ2 (Table 1), the “γ2/γ1 Selectivity Ratio” value turned out to be 36.6. On h-GABAA α1β3γ2 (Table 1), this compound showed a LogSel of 1.56.

With `Cc1nnc2n1-c1ccc(Br)c(Cl)c1C(c1c(F)cccc1F)=NC2` [Example 1, 8-bromo-7-chloro-6-(2,6-difluorophenyl)-1-methyl-4H-[1,2,4]triazolo[4,3-a][1,4]benzodiazepine], the Ki at h-GABAA α1β2γ1 was determined as 11.3 nM; at h-GABAA α1β3γ2, 146 nM. For the same compound, the “γ2/γ1 Selectivity Ratio” value on h-GABAA α1β3γ2 (Table 1) and on h-GABAA α1β3γ2 (Table 3) was 18.3 each time. Besides, the LogSel stood at 1.26 on h-GABAA α1β3γ2 (Table 1) and 1.3 at h-GABAA α1β3γ2 (Table 3).

`Fc1cccc(F)c1C1=NCc2nnc(-c3cccnn3)n2-c2ccc(Br)c(Cl)c21` [Example 104, 8-bromo-7-chloro-6-(2,6-difluorophenyl)-1-pyridazin-3-yl-4H-[1,2,4]triazolo[4,3-a][1,4]benzodiazepine]: on h-GABAA α1β2γ1, affinity was put at a Ki of 4.2 nM. Further, the Ki at h-GABAA α1β3γ2 was determined as 89.3 nM. Moreover, on h-GABAA α1β3γ2 (Table 1), the “γ2/γ1 Selectivity Ratio” value worked out at 38.1 and the LogSel is recorded as 1.58.

For the compound `Fc1ccccc1C1=NCc2nnc(C3CC3)n2-c2ccc(Br)c(Cl)c21` [Example 2, 8-bromo-7-chloro-1-cyclopropyl-6-(2-fluorophenyl)-4H-[1,2,4]triazolo[4,3-a][1,4]benzodiazepine], on h-GABAA α1β2γ1, the Ki stood at 77.5 nM. In addition, at h-GABAA α1β3γ2, the affinity, expressed as Ki, was 486 nM. In addition, on h-GABAA α1β3γ2 (Table 1), the “γ2/γ1 Selectivity Ratio” value was determined as 10.1 and the LogSel amounted to 1.01.

For the compound `Cc1ncc2n1-c1ccc(Cl)cc1C(c1ccccc1F)=NC2` [Midazolam, reference compound], the Ki at h-GABAA α1β2γ1 stood at 1150 nM; on h-GABAA α1β3γ2, 5 nM. This compound also showed a LogSel on h-GABAA α1β3γ2 (Table 3) of −2.2.

`Cc1ccc2c(c1Cl)C(c1c(F)cccc1F)=NCc1nnc(C)n1-2` [Example 20, 7-chloro-6-(2,6-difluorophenyl)-1,8-dimethyl-4H-[1,2,4]triazolo[4,3-a][1,4]benzodiazepine]: affinity on h-GABAA α1β2γ1 was put at a Ki of 37.1 nM. Besides, the affinity at h-GABAA α1β3γ2, expressed as Ki, was 289 nM. For the same compound, on h-GABAA α1β3γ2 (Table 1), the “γ2/γ1 Selectivity Ratio” value was determined as 12.2 and the LogSel was 1.09.

Turning to `Fc1cccnc1C1=NCc2nncn2-c2ccc(Cl)c(Cl)c21` [Example 60, 7,8-dichloro-6-(3-fluoro-2-pyridyl)-4H-[1,2,4]triazolo[4,3-a][1,4]benzodiazepine], the results for the Ki at h-GABAA α1β2γ1 and on h-GABAA α1β3γ2 were 161 nM and 1110 nM, respectively. On h-GABAA α1β3γ2 (Table 1), the “γ2/γ1 Selectivity Ratio” value is recorded as 28.6. On h-GABAA α1β3γ2 (Table 1), this compound came in with a LogSel of 1.46.

The compound `Fc1cccc(F)c1C1=NCc2nncn2-c2ccc(I)c(Cl)c21` [Example 34, 7-chloro-6-(2,6-difluorophenyl)-8-iodo-4H-[1,2,4]triazolo[4,3-a][1,4]benzodiazepine] yielded a Ki on h-GABAA α1β2γ1 of 5.6 nM. Affinity at h-GABAA α1β3γ2 was put at a Ki of 161 nM. Besides, on h-GABAA α1β3γ2 (Table 1), the “γ2/γ1 Selectivity Ratio” value came out at 15.9 and the LogSel was 1.20.

Source of the values: US20230141603A1, “BENZODIAZEPINE DERIVATIVES AS GABA A GAMMA1 PAM” (Hoffmann-La Roche Inc., priority 2021, published 2023).
